Test results taken from patent publication US20050228007A1, “Isoquinoline derivatives and methods of use thereof” (priority 2004, published 2005).
Blank lines part the entries; values can stand above or below the compound they belong to.

Columns and labels:
[1] = molecular target: T1, PARS (Mus musculus, UniProt P11103); assay: Cell protection assay, peroxynitrite-treated raw mouse macrophages; assay type: cell-based; details: peroxynitrite 750 μM
T1 construct: Raw mouse macrophages were cultured in DMEM medium with high glucose; endogenous in cells; host or cells: RAW mouse macrophages
T1 sequence (P11103 whole entry): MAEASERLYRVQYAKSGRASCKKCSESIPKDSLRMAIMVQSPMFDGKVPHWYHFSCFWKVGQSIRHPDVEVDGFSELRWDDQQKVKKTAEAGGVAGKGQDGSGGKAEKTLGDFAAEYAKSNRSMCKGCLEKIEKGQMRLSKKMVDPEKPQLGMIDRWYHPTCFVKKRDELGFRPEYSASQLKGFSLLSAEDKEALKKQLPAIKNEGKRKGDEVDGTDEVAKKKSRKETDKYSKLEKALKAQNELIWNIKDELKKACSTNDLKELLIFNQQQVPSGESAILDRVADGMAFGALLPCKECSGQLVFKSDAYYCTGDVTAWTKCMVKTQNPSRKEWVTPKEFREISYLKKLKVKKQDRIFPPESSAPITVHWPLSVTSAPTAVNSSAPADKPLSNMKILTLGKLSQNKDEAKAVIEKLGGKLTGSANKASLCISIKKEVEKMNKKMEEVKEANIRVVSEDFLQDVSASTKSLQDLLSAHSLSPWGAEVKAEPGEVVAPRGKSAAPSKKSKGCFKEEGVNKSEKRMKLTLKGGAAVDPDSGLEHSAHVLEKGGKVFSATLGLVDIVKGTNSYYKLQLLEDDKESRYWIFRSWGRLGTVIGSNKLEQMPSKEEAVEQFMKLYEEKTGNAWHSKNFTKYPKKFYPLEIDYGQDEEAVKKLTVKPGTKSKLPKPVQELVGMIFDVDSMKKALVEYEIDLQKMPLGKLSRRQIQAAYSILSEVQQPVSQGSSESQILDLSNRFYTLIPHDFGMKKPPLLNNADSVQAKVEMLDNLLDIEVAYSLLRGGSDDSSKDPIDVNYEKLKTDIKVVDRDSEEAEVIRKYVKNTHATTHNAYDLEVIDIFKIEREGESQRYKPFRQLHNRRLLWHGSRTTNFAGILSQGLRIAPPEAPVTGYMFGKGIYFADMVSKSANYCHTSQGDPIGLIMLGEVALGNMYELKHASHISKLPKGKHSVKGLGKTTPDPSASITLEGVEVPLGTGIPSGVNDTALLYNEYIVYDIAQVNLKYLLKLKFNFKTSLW

[2] = molecular target: T1, PARS; assay: PARS activation in peroxynitrite-treated cultured macrophages (whole-cell 3H-NAD+ assay); assay type: cell-based; details: cultured murine macrophages; for inhibition at 0.3 µM / % PARS inhibition at 300 nM: 300 nM; for % PARS inhibition at 100 nM / inhibition at 0.1 µM: 100 nM
Method: Raw mouse macrophages were cultured in DMEM medium with high glucose and supplemented with 10% fetal bovine serum. Cells were used at 80% confluence in 12-well plates. Cells were pretreated with various concentrations (100 nM -1 µM) of an Isoquinoline Derivative for 10 min. Peroxynitrite, a prototypical oxidant which induces DNA single strand breakage, was used to induce PARS activation. Peroxynitrite was diluted in phosphate buffered saline (PBS) (pH 11.0) and added to the cells in a bolus of 50 μl. Cells were then incubated for 20 min. […] After the 20 min incubation, the cells were spun, the medium was aspirated and the cells were resuspended in 0.5 ml assay buffer (56 mM HEPES pH 7.5, 28 mM KCl, 28 mM NaCl, 2 mM MgCl2, 0.01% w/v digitonin and 0.125 μM NAD^+ and 0.5 μCi/ml ^3H-NAD^+). Following an incubation in assay buffer, (10 min at 37° C.), PARS activity was measured as follows: 200 μl ice cold 50% w/v TCA was added and the samples were incubated for 4 hours at 4° C. Samples were then spun (10 min @ 10,000 g) and pellets washed twice with ice cold 5% w/v TCA and solubilized overnight in 250 μl 2% w/v SDS/0.1 N NaOH at 37° C. The contents of the tubes were added to 6.5 ml ScintiSafe Plus scintillation liquid (Fisher Scientific) and radioactivity was determined using a liquid scintillation counter (Wallac, Gaithersburg, Md.).

Compound: Nc1ccc2c(c1)Cc1c-2[nH]c(=O)c2ccccc12 [Compound 102, 5,6-Dihydro-5-oxo-9-amino-indeno[1,2-c]isoquinoline]
EC50 [1]: 95 nM

Compound: O=S(=O)(O)c1ccc2c(c1)Cc1c-2nc(O)c2ccccc12 [Compound 110]
EC50 [1]: 625 nM

Compound: COc1cccc(C2(O)c3ccccc3-c3[nH]c(=O)c4ccccc4c32)c1 (racemic) [Compound 3c, (±) 11-hydroxy-11-(m-methoxyphenyl)-5,6-dihydro-5-oxo-11H-indeno[1,2-c]isoquinoline]
inhibition at 0.3 µM [2]: 9%
inhibition at 1 µM [2]: 21%

Compound: O=c1[nH]c2c3ccccc3[nH]c2c2ccccc12 [Compound 31, 6H,11H-Indolo[3,2-c]Isoquinoline-5-one]
inhibition at 0.1 µM [2]: 18%

Compound: O=C1c2ccccc2-c2[nH]c(=O)c3ccccc3c21 [Compound 2, 5,6-dihydro-5,11-diketo-11H-indeno[1,2-c]isoquinoline]
inhibition at 0.1 µM [2]: 16%
inhibition at 1 µM [2]: 60%

Compound: O=c1[nH]c2c(c3ccccc13)C(Br)c1ccccc1-2 (racemic) [Compound 4b, (±) 11-bromo-5,6-dihydro-5-oxo-11H-indeno[1,2-c]isoquinoline]
inhibition at 0.1 µM [2]: 51%
inhibition at 1 µM [2]: 88%

Compound: CC1(O)c2ccccc2-c2[nH]c(=O)c3ccccc3c21 (racemic) [Compound 3b, (±) 11-hydroxy-11-methyl-5,6-dihydro-5-oxo-11H-indeno[1,2-c]isoquinoline]
inhibition at 0.3 µM [2]: 0%
inhibition at 1 µM [2]: 25%

Compound: CCCNC(=O)Nc1ccc2c(c1)Cc1c-2[nH]c(=O)c2ccccc12 [Compound 105]
EC50 [1]: 80 nM

Compound: O=c1[nH]c2c(c3ccccc13)Cc1ccccc1-2 [Compound 6, 5,6-dihydro-5-oxo-11H-indeno[1,2-c]isoquinoline]
inhibition at 0.1 µM [2]: 30%
inhibition at 1 µM [2]: 65%

Compound: O=c1[nH]c2c(c3ccccc13)Cc1cc(F)ccc1-2 [Compound 100]
EC50 [1]: 180 nM

Compound: O=S(=O)(NCCCN1CCOCC1)c1cc2c(cc1F)-c1nc(O)c3ccccc3c1C2 [Compound 107]
EC50 [1]: 10 nM

Compound: O=c1[nH]c2c(c3ccccc13)C(O)c1ccccc1-2 (racemic) [Compound 3a, (±) 11-hydroxy-5,6-dihydro-5-oxo-11H-indeno[1,2-c]isoquinoline]
inhibition at 0.1 µM [2]: 8%
inhibition at 1 µM [2]: 67%

Compound: O=c1[nH]c2c(c3ccccc13)Cc1cc(S(=O)(=O)Cl)ccc1-2 [Compound 7, 9-chlorosulfonyl-5,6-dihydro-5-oxo-11H-indeno[1,2-c]isoquinoline]
inhibition at 0.1 µM [2]: 0%
inhibition at 1 µM [2]: 50%

Compound: Oc1nc2c(c3ccccc13)Cc1ccc(F)cc1-2 [Compound 99]
EC50 [1]: 225 nM

Compound: O=C(CO)Nc1ccc2c(c1)Cc1c-2[nH]c(=O)c2ccccc12 [Compound 104]
EC50 [1]: 65 nM

The remaining lines, values ahead:

% PARS inhibition at 300 nM [2]: 68%
Compound: O=c1[nH]c2c(c3ccccc13)Cc1cc(S(=O)(=O)N3CCCC3CO)ccc1-2 (stereo not shown) [Compound 8e, 9-[N-(2-hydroxyprolinyl)sulphonyl]-5,6-dihydro-5-oxo-11H-indeno[1,2-c]isoquinoline]

% PARS inhibition at 300 nM [2]: 47%
Compound: CN1CCN(S(=O)(=O)c2ccc3c(c2)Cc2c-3[nH]c(=O)c3ccccc23)CC1 [Compound 8a, 9-[N-(4-methylpiperazine-1-yl)sulphonyl]-5,6-dihydro-5-oxo-11H-indeno-[1,2-c]isoquinoline]

% PARS inhibition at 100 nM [2]: 77%
% PARS inhibition at 300 nM [2]: 82%
Compound: O=c1[nH]c2c(c3ccccc13)Cc1cc(S(=O)(=O)n3ccnc3)ccc1-2 [Compound 8d, 9-[N-(imidazolo-1-yl)sulphonyl]-5,6-dihydro-5-oxo-11H-isoquinoline]

% PARS inhibition at 300 nM [2]: 50%
Compound: O=c1[nH]c2c(c3ccccc13)Cc1cc(S(=O)(=O)NCCCN3CCCC3)ccc1-2 [Compound 8m, 9-[N-(3-[tetrahydropyrrolodino-1-yl]propyl)aminosulphonyl]-5,6-dihydro-5-oxo-11H-indeno-[1,2-c]isoquinoline]

% PARS inhibition at 100 nM [2]: 10%
% PARS inhibition at 1 μM [2]: 55%
Compound: CN(C)C1c2ccccc2-c2[nH]c(=O)c3ccccc3c21 (racemic) [Compound 5a, (±) 11-N,N-dimethylamino-5,6-dihydro-5-oxo-11H-indeno[1,2-c]isoquinoline]

inhibition at 0.1 µM [2]: 14%
inhibition at 1 µM [2]: 75%
Compound: NS(=O)(=O)c1ccc2c3[nH]c(=O)c4ccccc4c3n(S(N)(=O)=O)c2c1 [Compound 35a, 6H,11H-Indolo[3,2-c]Isoquinoline-5-one-9,11-disulfonamide]

% PARS inhibition at 100 nM [2]: 0%
% PARS inhibition at 1 μM [2]: 24%
Compound: CN1CCN(C2c3ccccc3-c3[nH]c(=O)c4ccccc4c32)CC1 (racemic) [Compound 5c, (±) 11-(N-methylpiperazin)-5,6-dihydro-5-oxo-11H-indeno[1,2-c]isoquinoline]

inhibition at 0.1 µM [2]: 34%
inhibition at 0.3 µM [2]: 55%
Compound: CN(C)CCNS(=O)(=O)c1ccc2c(c1)Cc1c-2[nH]c(=O)c2ccccc12 [Compound 8g, 9-[N-(2-[N,N-dimethylamino]ethyl)aminosulphonyl]-5,6-dihydro-5-oxo-11H-indeno[1,2-c]isoquinoline]

% PARS inhibition at 100 nM [2]: 20%
% PARS inhibition at 300 nM [2]: 28%
Compound: CN(C)CCN(CCN(C)C)S(=O)(=O)c1ccc2c(c1)Cc1c-2[nH]c(=O)c2ccccc12 [Compound 8q, 9-[N,N di-(2-[N,N dimethylamino]ethyl)aminosulphonyl]-5,6-dihydro-5-oxo-11H-indeno-[1,2-c]isoquinoline]

inhibition at 0.1 µM [2]: 34%
inhibition at 0.3 µM [2]: 79%
inhibition at 1 µM [2]: 84%
Compound: O=c1[nH]c2c3cc(O)ccc3oc2c2ccccc12 [Compound 23a, 8-Hydroxy-6H-11-oxa-6-aza-benzo[a]fluoren-5-one]

inhibition at 0.1 µM [2]: 0%
inhibition at 1 µM [2]: 33%
Compound: CCN(CC)C1c2ccccc2-c2[nH]c(=O)c3ccccc3c21 (racemic) [Compound 5b, (±) 11diethylamino-5,6-dihydro-5-oxo-11H-indeno[1,2-c]isoquinoline]

inhibition at 0.1 µM [2]: 0%
inhibition at 1 µM [2]: 21%
Compound: O=c1[nH]c2c(c3ccccc13)C(N1CCOCC1)c1ccccc1-2 (racemic) [Compound 5e, (±) 11-morpholino-5,6-dihydro-5-oxo-11H-indeno[1,2-c]isoquinoline]

% PARS inhibition at 100 nM [2]: 48%
% PARS inhibition at 300 nM [2]: 55%
Compound: CN1CCN(CCCNS(=O)(=O)c2ccc3c(c2)Cc2c-3[nH]c(=O)c3ccccc23)CC1 [Compound 8o, 9-[N-[3-(4-methylpiperazino-1-yl]propyl)-aminosulphonyl]-5,6-dihydro-5-oxo-11H-indeno-[1,2c]isoquinoline]

% PARS inhibition at 100 nM [2]: 51%
% PARS inhibition at 1 μM [2]: 81%
Compound: COc1ccc2oc3c4ccccc4c(=O)[nH]c3c2c1 [Compound 22a]

% PARS inhibition at 100 nM [2]: 20%
% PARS inhibition at 300 nM [2]: 28%
Compound: O=c1[nH]c2c(c3ccccc13)Cc1cc(S(=O)(=O)N(CCN(CCO)CCO)CCN(CCO)CCO)ccc1-2 [Compound 8r, 9-[N,N-di(2[N,N-dihydroxyethylamino]ethyl)-aminosulphonyl]-5,6-dihydro-5-oxo-11H-indeno-[1,2c]isoquinoline]

% PARS inhibition at 100 nM [2]: 56%
% PARS inhibition at 300 nM [2]: 76%
Compound: O=c1[nH]c2c(c3ccccc13)Cc1cc(S(=O)(=O)NCCN3CCCCC3)ccc1-2 [Compound 8h, 9-[N-(2-[piperidino-1-yl]ethyl)-aminosulphonyl]-5,6-dihydro-5-oxo-11H-indeno[1,2-c]isoquinoline]

% PARS inhibition at 300 nM [2]: 27%
Compound: O=c1[nH]c2c(c3ccccc13)Cc1cc(S(=O)(=O)N3CCN(CCO)CC3)ccc1-2 [Compound 8c, 9-[N-4-(2-hydroxyethylpiperazino-1-yl)-sulphonyl]-5,6-dihydro-5-oxo-1H-indeno-[1,2-c]isoquinoline]

inhibition at 0.1 µM [2]: 53%
inhibition at 0.3 µM [2]: 57%
inhibition at 1 µM [2]: 58%
Compound: O=c1[nH]c2c3ccc(O)cc3oc2c2ccccc12 [Compound 23b]

% PARS inhibition at 100 nM [2]: 0%
% PARS inhibition at 1 μM [2]: 48%
Compound: O=c1[nH]c2c(c3ccccc13)C(N1CCCCC1)c1ccccc1-2 (stereo not shown) [Compound 5d, 11-(piperidin)-5,6-dihydro-5-oxo-11H-indeno[1,2-c]isoquinoline]
